Patent publication US20160243142A1, “AVICIN D FOR TREATMENT OF MANTLE CELL LYMPHOMA” (Research Development Foundation, priority 2015, published 2016)
“Also recorded” adds a separate entry of the source.

Tests used:
[1] = approved dose; alternative treatment 1.9 months; cited from earlier work
[2] = Toxicity / body weight in Mino xenograft bearing NODscid mice; type: in vivo; settings: for tolerability of dosing protocols: 0.5, 1.0 and 1.0-2.0 mg/kg s.c. daily; for animals removed from the study due to drug toxicity / treatment related deaths (TR): Group 5: escalating 1.0-2.0 mg/kg s.c., N = 10
Procedure: (§1) Animals were treated according to Table 3 below. Animals were dosed in the opposite flank opposing the tumors at 10 mL/kg. Daily clinical observations were made and body weights and tumor measurements were performed thrice weekly. Animals were maintained on study until their tumor burden reached the study endpoint of 2000 mm^3. Animals were euthanized at the study endpoint with terminal cardiocentesis performed for serum collection and plasma preparation in K2EDTA. Tumors were excised and fixed in 10% formalin.
Non-treatment related deaths (NTR), non-treatment metastatic related deaths (NTRm), and treatment related deaths (TR) were monitored. Animal body weight was monitored three times weekly throughout the study and mean % body weight loss was calculated and plotted with GraphPad Prism 5.0. Animals displaying >20% body weight loss were to be euthanized and recorded as TRs.

[3] = test system: Mino mantle cell lymphoma xenograft; assay: Tumor growth delay in Mino mantle cell lymphoma xenograft bearing NODscid mice; type: in vivo; settings: for PR (partial response): N = 10; for Log10 cell kill (750 mm^3): activity threshold 0.7
Text: 80 NOD .CB17 -Prkdcscid/J (NOD scid) (JAX, West Sacramento, Calif.) 4-6 week old female mice were transferred to the in vivo research laboratory in West Sacramento, CA. The mice were ear notched for identification and housed in individually and positively ventilated polycarbonate cages with HEPA filtered air at a density of five mice per cage. Bed-o'cobs® bedding was used and cages were changed every two weeks. The animal room was illuminated entirely with artificial fluorescent lighting, with a controlled 12 h light/dark cycle (7 am to 7 pm light). The normal temperature and relative humidity ranges in the animal rooms were 22±4° C. and 50±15%, respectively. The animal rooms were set to have 15 air exchanges per hour. Filtered tap water, acidified to a pH of 2.8 to 3.1, and LabDiet 5LL4 were provided ad libitum.
Mino Mantle Cell Lymphoma cells (ATCC catalogue #CRL-3000™, Manassas, Va.) were maintained in RPMI 1640 with 2 mM 1-glutamine, 25 mM HEPES, 4.5 g/L D-glucose (Invitrogen, San Diego, Calif.) supplemented with 10% ES cell certified fetal bovine serum (Hyclone, Logan, Utah). The cells were suspended at 1×10^8 cells/ml in serum free media, and 80 mice were subcutaneously injected in the rear right flanks with 10^7 cells in 100 μL. Tumor volumes were monitored with ULTRA-Cal IV digital calipers (Fowler, Newton, Mass.), and 50 animals were tumor size rank matched into five cohorts of 10 animals with mean tumor volumes of approximately 150 mm^3.
as §1
Animals were euthanized when the tumors had reached the 2000 mm^3 study endpoint, and the tumors were harvested, weighed, and placed in 10% formalin. Table 4 summarizes the clinical observation schedule and the body weight and tumor measurement schedule performed.
Tumor volumes were calculated from digital caliper raw data by using the formula: […]
The value w (width) was the smaller of two perpendicular tumor axes and the value l (length) was the larger of two perpendicular axes.
The tumor growth delay (TGD) method was used to analyze drug treatment effects on time (days) to tumor endpoint (TTE) for Mino tumor response. The tumor endpoint volume for TTE analysis was set at 2000 mm^3 and TTE was defined in days by the formula: […]
The value for b was the (y) intercept and m was the slope of the line calculated from a linear regression of log-transformed tumor growth data for each tumor calculated from a minimum of three time points preceding 2000 mm^3 and a minimum of one that surpassed the time point for 2000 mm^3. Treatment initiated when tumors reached approximately 150 mm^3, and animals were drugged according to Table 3. Tumors were monitored until animals were euthanized due to tumors reaching a 2000 mm^3 endpoint, and the study was concluded on day 59 post drug treatment initiation.
Treatment efficacy was determined by comparing TTE values calculated for each treatment group and by calculating percent tumor growth delay for each treatment group:
T represented the median TTE in days for a drug treatment group and C represented the median TTE in days for the control group. Statistical significance for median TTE values for treatment group comparisons was determined by the Log-rank test with GraphPad Prism 5.0 software (GraphPad, La Jolla, Calif.). A 95% confidence value was used for two-tailed statistical analyses. Log-rank survival curves were plotted based on survival to 2000 mm3 to visualize the statistical significance of the median TTE values between treatment groups. […]

[4] = 3.3 mg/kg i.v. days 1 and 8 (Group 2)
[5] = Group 1 vs. Group 3: vehicle control vs. 0.5 mg/kg s.c.
[6] = Group 1 vs. Group 4: vehicle control vs. 1.0 mg/kg s.c.
[7] = Group 1 vs. Group 5: vehicle control vs. 1.0-2.0 mg/kg s.c.
[8] = Group 3: 0.5 mg/kg s.c. daily days 1-33
[9] = Group 3 vs. Group 4: 0.5 mg/kg vs. 1.0 mg/kg s.c.
[10] = Group 3 vs. Group 5: 0.5 mg/kg vs. 1.0-2.0 mg/kg s.c.
[11] = Group 4: 1.0 mg/kg s.c. daily days 1-2, 5-33
[12] = Group 4 vs. Group 5: 1.0 mg/kg vs. 1.0-2.0 mg/kg s.c.
[13] = Group 5: escalating 1.0-2.0 mg/kg s.c. daily days 1-2, 5-33

## CO[C@H]1C[C@@H]2CC[C@@H](C)[C@@](O)(O2)C(=O)C(=O)N2CCCC[C@H]2C(=O)O[C@H]([C@H](C)C[C@@H]2CC[C@@H](OC(=O)C(C)(CO)CO)[C@H](OC)C2)CC(=O)[C@H](C)/C=C(\C)[C@@H](O)[C@@H](OC)C(=O)[C@H](C)C[C@H](C)/C=C/C=C/C=C/1C [Torisel, temsirolimus]
[1]
  average time lived without disease getting worse: 4.8 months

## COc1cccc2c1C(=O)c1c(O)c3c(c(O)c1C2=O)C[C@@](O)(C(=O)CO)C[C@@H]3O[C@H]1C[C@H](N)[C@H](O)[C@H](C)O1 [Adriamycin, doxorubicin, reference compound]
[2]; [4]
  day by which animals were removed from study: ≤ 16 days
  toxicity of positive control: significant body weight loss; also recorded: severe toxicity
[2]; 3.3 mg/kg i.v. days 1 and 8 (Group 2), listed as adriamycin
  toxicity of positive control: significant treatment-related body weight loss

## C=CC(C)(O)CC/C=C(\CO)C(=O)O[C@@H]1C(C)O[C@@H](O[C@](C)(C=C)CC/C=C(\CO)C(=O)O[C@H]2C[C@@]3(C(=O)O[C@@H]4OC(CO)[C@@H](O)C(O)C4O[C@@H]4OC(C)[C@H](O[C@@H]5O[C@@H](CO)C(O)[C@@H]5O)C(O[C@@H]5OC(CO)[C@@H](O)C(O)C5O)C4O)C(CC2(C)C)C2=CCC4[C@@]5(C)CC[C@H](O[C@@H]6OC(CO[C@@H]7OC(C)[C@H](O)C(O)C7O[C@@H]7OC[C@@H](O)C(O)C7O)[C@@H](O)C(O)C6NC(C)=O)C(C)(C)C5CC[C@@]4(C)[C@]2(C)C[C@H]3O)C(O)C1O (some centres unmarked) [AVD-001]
[3]; [5]
  Hazard Ratio: 3.159
  Median survival Ratio (control/treated): 0.7412
[3]; [6]
  Hazard Ratio: 3.492
  Median survival Ratio (control/treated): 0.6941
[3]; [7]
  Hazard Ratio: 10.36
  Median survival Ratio (control/treated): 0.5675
[3]; Group 3: 0.5 mg/kg s.c.
  Median Survival (to 2000 mm^3): 29.2 days
  PR (partial response): 3
  Log10 cell kill (750 mm^3): 0.57
[3]; [8]
  % TGD (tumor growth delay): 34.9%
  Median TTE (time to tumor endpoint, 2000 mm^3): 29.2 days
[3]; [9]
  Hazard Ratio: 1.588
  Median survival Ratio: 0.9365
[3]; [10]
  Hazard Ratio: 5.491
  Median survival Ratio: 0.7657
[3]; Group 4: 1.0 mg/kg s.c.
  Median Survival (to 2000 mm^3): 31.18 days
  PR (partial response): 4
  Log10 cell kill (750 mm^3): 0.45
[3]; [11]
  % TGD (tumor growth delay): 44.1%
  Median TTE (time to tumor endpoint, 2000 mm^3): 31.2 days
[3]; [12]
  Hazard Ratio: 1.674
  Median survival Ratio: 0.8177
[3]; Group 5: 1.0-2.0 mg/kg s.c.
  Median Survival (to 2000 mm^3): 38.14 days
[3]; Group 5: 1.0 to 2.0 mg/kg s.c.
  PR (partial response): 6
  Log10 cell kill (750 mm^3): 0.89
[3]; [13]
  % TGD (tumor growth delay): 76.2%
  Median TTE (time to tumor endpoint, 2000 mm^3): 38.1 days
[2]; 0.5 mg/kg dose cohort, day 2
  nadir mean % body weight change: −4.43%
[2]; 1.0 mg/kg dose cohort, day 3
  nadir mean % body weight change: −11.82%
[2]
  tolerability of dosing protocols: generally well-tolerated
  animals removed from the study due to drug toxicity / treatment related deaths (TR): Two
[2]; listed as Avicin
  tolerability of dosing protocols: generally well tolerated
  animals removed from the study due to drug toxicity / treatment related deaths (TR): two and Two
[2]; Group 3 (0.5 mg/kg s.c.), peaked at day 2
  body weight loss: 4%
[2]; Groups 4 and 5 (1.0 and 1.0-2.0 mg/kg s.c.), dosing suspended days 3 and 4
  transient body weight loss: 10%
[2]; escalating dose 1.0-2.0 cohort, day 3
  nadir average % body weight change: −10.42%
[2]; several Group 3, 4 and 5 mice, s.c.
  injection site findings: irritation and/or bleeding at the injection site
